Test results reported in patent US20250144067A1, “PERSONALIZED STARVATION THERAPY FOR CANCER” (Faeth Therapeutics, Inc., priority 2021, published 2025).
Structures can show the parent of a compound that is named as a salt.

Key:
[1] = system: NCI-H292 lung cancer cells; assay: FDA drug screening, complete media vs cholesterol-free media with simvastatin (TABLE 2); format: cell-based, human; details: for Cholesterol-free media + simvastatin (0.04 μM) / Complete Media: NCI-H292 cells
[2] = system: NCI-H292 lung cancer cells; assay: FDA drug screening, complete media vs cholesterol-free media without statin (TABLE 1); format: cell-based, human
[3] = complete media vs cholesterol-free media + simvastatin (0.04 μM), >0 enhanced anti-cancer activity, about 0 neutral, <0 antagonist
[4] = Complete minus Cholesterol-free, greater than 0 enhanced anti-cancer activity, about 0 neutral, below 0 antagonist
[5] = NCI-H292 cells, FDA drug library screen, cholesterol-free media without statin
[6] = NCI-H292 cells, FDA drug library screen, complete media
[7] = drug in cholesterol-free media with simvastatin 0.04 μM
[8] = NCI-H292 cells, cholesterol-free media without statin, FDA drug library screen
[9] = NCI-H292 cells, complete media, FDA drug library screen
[10] = complete vs cholesterol-free media, >0 enhanced anti-cancer activity, about 0 neutral, <0 antagonist
[11] = cholesterol-free media with simvastatin 0.04 μM, FDA drug library screen (TABLE 2)
[12] = complete media, FDA drug library screen (TABLE 2)
[13] = complete media minus cholesterol-free media + simvastatin (0.04 μM), >0 enhanced anti-cancer activity, about 0 neutral, <0 antagonist
[14] = Complete minus Cholesterol-free, >0 enhanced anti-cancer activity, about 0 neutral, <0 antagonist
[15] = NCI-H292 cells, cholesterol-free media without statin
[16] = FDA drug library screen, cholesterol-free media with simvastatin 0.04 μM
[17] = FDA drug library screen, complete media
[18] = complete media minus cholesterol-free media + simvastatin, >0 enhanced anti-cancer activity, about 0 neutral, <0 antagonist
[19] = Complete minus Cholesterol-free, greater than 0 enhanced anti-cancer activity, about 0 neutral, below 0 antagonists
[20] = NCI-H292 cells in cholesterol-free media without statin
[21] = NCI-H292 cells in complete media
[22] = cholesterol-free media with simvastatin 0.04 μM, cell growth value in FDA drug screen
[23] = complete media, cell growth value in FDA drug screen
[24] = complete vs cholesterol-free media, greater than 0 enhanced anti-cancer activity, about 0 neutral, below 0 antagonists

For `NC(=O)CCC(N)C(=O)O` (racemic) [DL-Glutamine], the “Cholesterol-free media + simvastatin (0.04 μM)” value ([1]; FDA library drug in cholesterol-free media with simvastatin 0.04 μM) was 0.9407, the “Complete Media” value ([1]; FDA library drug in complete media) was 0.6307 and the Difference [1, 3] was −0.31. For the same compound, the Difference [2, 4] was −0.07, the Cholesterol-free [2, 5] was 1.771 and the Complete [2, 6] was 1.698.

In the case of `COc1ccc2cc1Oc1ccc(cc1)C[C@H]1c3cc(c(OC)cc3CCN1C)Oc1c(OC)c(OC)cc3c1[C@H](C2)N(C)CC3` [Tetrandrine], the “Cholesterol-free media + simvastatin (0.04 μM)” value [1, 7] is reported as 1.133, the “Complete Media” value ([1]; drug in complete media) is reported as 0.9661 and the Difference [1, 3] is reported as −0.17. For the same compound, the Cholesterol-free [2, 8] was 0.9522, the Complete [2, 9] was 1.143 and the Difference [2, 10] was 0.19.

`CNC[C@H](O)[C@@H](O)[C@H](O)[C@H](O)CO` [Meglumine] was tested, and the “Cholesterol-free media + simvastatin (0.04 μM)” value [1, 11] was 1.358, the “Complete Media” value [1, 12] was 1.305 and the Difference [1, 13] was −0.05. For the same compound, the Difference [2, 14] was −0.26, the Cholesterol-free [2, 15] was 1.228 and the Complete ([2]; NCI-H292 cells, complete media) was 0.9693.

For Brompheniramine (maleate), the “Cholesterol-free media + simvastatin (0.04 μM)” value [1, 16] was 0.8932, the “Complete Media” value [1, 17] was 1.189 and the Difference [1, 18] was 0.30. It also gave a Difference [2, 19] of −0.54, a Cholesterol-free [2, 20] of 1.443 and a Complete [2, 21] of 0.9065.

In the case of `CN(C)CC(c1ccc(O)cc1)C1(O)CCCCC1` (centres unmarked) [Desvenlafaxine], the “Cholesterol-free media + simvastatin (0.04 μM)” value [1, 22] is reported as 1.047, the “Complete Media” value [1, 23] is reported as 1.102 and the Difference [1, 18] is reported as 0.05. The Cholesterol-free [2, 15] was 1.158, the Complete ([2]; NCI-H292 cells, complete media) was 0.8309 and the Difference [2, 24] was −0.33.

For `CC(=O)Oc1ccccc1C(=O)O` [Aspirin], the “Cholesterol-free media + simvastatin (0.04 μM)” value [1, 7] was 1.19, the “Complete Media” value ([1]; drug in complete media) was 0.9812 and the Difference [1, 3] was −0.21. For the same compound, the Cholesterol-free [2, 15] was 1.474, the Complete ([2]; NCI-H292 cells, complete media) was 1.02 and the Difference [2, 24] was −0.45.

In the case of `Nc1nc(CC(=O)Nc2ccc(CCNC[C@H](O)c3ccccc3)cc2)cs1` [Mirabegron], the “Cholesterol-free media + simvastatin (0.04 μM)” value [1, 16] is reported as 1.317, the “Complete Media” value [1, 17] is reported as 1.183 and the Difference [1, 3] is reported as −0.13. The Cholesterol-free [2, 15] was 1.131, the Complete ([2]; NCI-H292 cells, complete media) was 0.7731 and the Difference [2, 24] was −0.36.

`CO[C@H]1/C=C/O[C@@]2(C)Oc3c(C)c(O)c4c(O)c(c5c(nc6cc(C)ccn65)c4c3C2=O)NC(=O)/C(C)=C\C=C\[C@H](C)[C@H](O)[C@@H](C)[C@@H](O)[C@@H](C)[C@H](OC(C)=O)[C@@H]1C` [Rifaximin] was tested, and the “Cholesterol-free media + simvastatin (0.04 μM)” value [1, 16] was 0.8832, the “Complete Media” value [1, 17] was 0.7304 and the Difference [1, 3] was −0.15. For the same compound, the Cholesterol-free [2, 8] was 0.8156, the Complete [2, 9] was 1.163 and the Difference [2, 10] was 0.35.

With Gramicidin the “Cholesterol-free media + simvastatin (0.04 μM)” value [1, 11] was 0.2157, the “Complete Media” value [1, 12] was 0.2144 and the Difference ([1]; complete media minus cholesterol-free media + simvastatin (0.04 μM), […]) was 0.00. For the same compound, the Difference ([2]; Complete minus Cholesterol-free, […]) was −0.14, the Cholesterol-free [2, 5] was 0.1906 and the Complete [2, 6] was 0.04898.

`CC(C)(C)C(=O)Oc1ccc(S(=O)(=O)Nc2ccccc2C(=O)NCC(=O)O)cc1` [Sivelestat (sodium tetrahydrate)] was tested, and the “Cholesterol-free media + simvastatin (0.04 μM)” value [1, 11] was 1.071, the “Complete Media” value [1, 12] was 1.039 and the Difference [1, 13] was −0.03. It also gave a Difference [2, 14] of −0.30, a Cholesterol-free [2, 15] of 1.29 and a Complete ([2]; NCI-H292 cells, complete media) of 0.9928.

With `C=C1CC[C@H](O)C/C1=C/C=C1\CCC[C@]2(C)[C@@H]([C@H](C)/C=C/[C@H](C)C(C)C)CC[C@@H]12` [Vitamin D2] the “Cholesterol-free media + simvastatin (0.04 μM)” value [1, 16] was 1.05, the “Complete Media” value [1, 17] was 0.9687 and the Difference [1, 3] was −0.08. The Difference [2, 19] was −0.62, the Cholesterol-free [2, 20] was 1.409 and the Complete [2, 21] was 0.7927.

In the case of `CC(=O)Oc1cc(C(C)C)c(OCCN(C)C)cc1C` [Moxisylyte (hydrochloride)], the “Cholesterol-free media + simvastatin (0.04 μM)” value [1, 7] is reported as 1.237, the “Complete Media” value ([1]; drug in complete media) is reported as 1.071 and the Difference [1, 3] is reported as −0.17. It also gave a Difference [2, 14] of 0.07, a Cholesterol-free [2, 8] of 1.028 and a Complete [2, 9] of 1.096.

`Cc1cc2cc3c(C)cc(=O)oc3c(C)c2o1` [Trioxsalen] was tested, and the “Cholesterol-free media + simvastatin (0.04 μM)” value [1, 16] was 1.056, the “Complete Media” value [1, 17] was 0.9717 and the Difference [1, 3] was −0.08. For the same compound, the Cholesterol-free [2, 8] was 1.107, the Complete [2, 9] was 1.239 and the Difference [2, 10] was 0.13.

`CCC(=O)NS(=O)(=O)c1ccc(-c2c(-c3ccccc3)noc2C)cc1` [Parecoxib (Sodium)] was tested, and the “Cholesterol-free media + simvastatin (0.04 μM)” value [1, 16] was 2.419, the Difference [1, 13] was −1.17 and the Difference [2, 4] was −0.08. The Cholesterol-free [2, 5] was 0.9327 and the Complete [2, 6] was 0.8551.

With `CN(C)CCCN1c2ccccc2CCc2ccc(Cl)cc21` [Clomipramine (hydrochloride)] the “Cholesterol-free media + simvastatin (0.04 μM)” value [1, 22] was 0.9105, the “Complete Media” value [1, 23] was 1.028 and the Difference [1, 18] was 0.12. It also gave a Difference [2, 19] of −0.54, a Cholesterol-free [2, 20] of 1.47 and a Complete [2, 21] of 0.9281.
